Results on 2 molecules are retold here after ChEMBL document CHEMBL1128145, “N-(carbobenzyloxy)isatin: A slow binding -keto lactam inhibitor of -chymotrypsin” (Bioorg Med Chem Lett, 1995).

The target in test [1] is T1, Chymotrypsinogen B (Homo sapiens, UniProt P17538).
Description: Rate constant against Alpha-chymotrypsin from time dependent inhibition and reactivation data
Test [2] concerns the target T1, Chymotrypsinogen B. The test can be described thus: Inhibition constant against alpha-chymotrypsin.
Test [3] concerns the target T1, Chymotrypsinogen B. This is another data set of the same source.
Description: (§1) Rate constant against alpha-chymotrypsin
The target of test [4] is T1, Chymotrypsinogen B. This is another data set of the same source.
Description: Rate constant against alpha-chymotrypsin from time dependent inhibition and reactivation data
Test [5] has as its target T1, Chymotrypsinogen B. This is another data set of the same source.
Description: as §1
The target of test [6] is T1, Chymotrypsinogen B. The test can be described thus: Inhibition constant against Alpha-chymotrypsin inhibitor was determined.

T1 sequence (P17538 34-164 limits assumed, other chains not shown): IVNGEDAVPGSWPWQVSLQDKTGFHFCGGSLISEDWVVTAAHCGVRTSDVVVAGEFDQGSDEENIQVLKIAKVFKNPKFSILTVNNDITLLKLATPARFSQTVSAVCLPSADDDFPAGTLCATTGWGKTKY
T1 sequence (P17538 167-263 limits assumed, other chains not shown): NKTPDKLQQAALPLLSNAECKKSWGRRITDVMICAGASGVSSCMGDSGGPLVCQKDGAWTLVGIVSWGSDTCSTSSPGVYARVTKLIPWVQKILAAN

As a reminder, the Ki is the dissociation constant of the complex between target and ligand, obtained from inhibition or displacement. Low values mean higher affinity, high ones lower affinity. With `O=C1C(=O)N(C(=O)OCc2ccccc2)c2ccccc21`, the k on at Chymotrypsinogen B [1] amounted to 7.63 M⁻¹ s⁻¹; on Chymotrypsinogen B [3], 254 M⁻¹ s⁻¹. The molecule further showed a Ki on Chymotrypsinogen B [2] of 3.8 µM. Besides, the k off on Chymotrypsinogen B [4] is 4.01e-05 s⁻¹; on Chymotrypsinogen B [5] it was 0.00095 s⁻¹.
`CC(C)(C)OC(=O)N1C(=O)C(=O)c2ccccc21` registered a Ki at Chymotrypsinogen B [6] of over 2000 µM.
